The values that follow are results of earlier work, collected in US20200069786A1, “COMPOSITION AND PROCESS FOR PREPARING VACCINE” (TREOS BIO ZRT., priority 2018, published 2020).

The subject of this series is subjects of 64 clinical studies. Conditions: published clinical trials; proportion of subjects in the study population with T cell responses induced by the study vaccine; cited from earlier work.

For “Her2/neu peptide vaccine (p688) (RRLLQETEL; UniProt P04626 688-696, looked up, fragment)”, the IRR is given as 31%.
